Test results: patent US8686143B2, “Compounds useful as inhibitors of Janus kinases” (Vertex Pharmaceuticals Incorporated, priority 2007, dated 2014)

target: T1, JAK3 (Homo sapiens, UniProt P52333); assay: JAK3 Inhibition Assay (33P incorporation into poly(Glu)4Tyr); format: biochemical; conditions: 1 nM JAK3, 5 μM ATP, 1 μM poly(Glu)4Tyr, 25° C.
T1 sequence (P52333 1-1124): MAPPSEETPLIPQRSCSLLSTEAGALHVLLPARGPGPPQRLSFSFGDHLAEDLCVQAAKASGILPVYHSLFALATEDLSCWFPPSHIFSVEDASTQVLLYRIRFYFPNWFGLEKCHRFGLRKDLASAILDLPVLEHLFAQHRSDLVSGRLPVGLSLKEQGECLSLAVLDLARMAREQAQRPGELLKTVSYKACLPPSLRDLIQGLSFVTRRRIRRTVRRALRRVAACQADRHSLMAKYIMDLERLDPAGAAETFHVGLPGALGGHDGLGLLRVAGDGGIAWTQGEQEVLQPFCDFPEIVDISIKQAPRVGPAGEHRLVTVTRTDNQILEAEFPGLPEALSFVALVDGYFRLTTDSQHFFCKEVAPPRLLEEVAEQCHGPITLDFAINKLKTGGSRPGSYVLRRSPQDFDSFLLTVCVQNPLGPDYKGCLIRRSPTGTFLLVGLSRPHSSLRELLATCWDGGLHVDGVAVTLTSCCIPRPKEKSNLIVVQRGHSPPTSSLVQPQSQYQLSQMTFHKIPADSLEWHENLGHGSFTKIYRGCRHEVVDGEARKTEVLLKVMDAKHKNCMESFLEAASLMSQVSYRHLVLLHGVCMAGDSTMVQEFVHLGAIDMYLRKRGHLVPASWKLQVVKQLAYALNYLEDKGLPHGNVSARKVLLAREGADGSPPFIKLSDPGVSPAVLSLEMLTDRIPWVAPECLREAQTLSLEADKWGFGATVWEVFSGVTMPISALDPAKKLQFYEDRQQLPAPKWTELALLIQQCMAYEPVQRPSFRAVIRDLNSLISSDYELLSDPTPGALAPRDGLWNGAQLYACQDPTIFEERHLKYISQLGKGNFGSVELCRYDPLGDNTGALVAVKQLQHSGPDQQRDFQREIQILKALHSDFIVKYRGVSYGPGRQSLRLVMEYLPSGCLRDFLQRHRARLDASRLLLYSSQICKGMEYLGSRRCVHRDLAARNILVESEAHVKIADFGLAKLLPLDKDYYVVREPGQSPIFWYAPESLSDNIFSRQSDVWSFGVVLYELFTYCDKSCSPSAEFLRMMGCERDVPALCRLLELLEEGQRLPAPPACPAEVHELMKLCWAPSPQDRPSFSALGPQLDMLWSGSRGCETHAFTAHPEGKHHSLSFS
Description: Compounds were screened for their ability to inhibit JAK3 using the assay shown below. Reactions were carried out in a kinase buffer containing 100 mM HEPES (pH 7.4), 1 mM DTT, 10 mM MgCl2, 25 mM NaCl, and 0.01% BSA. Substrate concentrations in the assay were 5 μM ATP (200 uCi/μmole ATP) and 1 μM poly(Glu)4Tyr. Reactions were carried out at 25° C. and 1 nM JAK3.
To each well of a 96 well polycarbonate plate was added 1.5 μl of a candidate JAK3 inhibitor along with 50 μlof kinase buffer containing 2 μM poly(Glu)4Tyr and 10 μM ATP. This was then mixed and 50 μl of kinase buffer containing 2 nM JAK3 enzyme was added to start the reaction. After 20 minutes at room temperature (25° C.), the reaction was stopped with 50 μl of 20% trichloroacetic acid (TCA) that also contained 0.4 mM ATP. The entire contents of each well were then transferred to a 96 well glass fiber filter plate using a TomTek Cell Harvester. After washing, 60 μl of scintillation fluid was added and ^33P incorporation detected on a Perkin Elmer TopCount.

Row | Structure (SMILES) | Ki [µM]
1 | CC(C)[C@@H](Nc1ccnc(-c2c[nH]c(C(=O)NCc3ccccc3)c2)n1)C(=O)NCC(F)(F)F [Compound 110] | 1 to 10
2 | CC(C)(Nc1nc(-c2c[nH]c3ccc(Cl)cc23)ncc1F)C(=O)NCC(F)(F)F [Compound 156] | 1 to 10
3 | Nc1nc(Nc2ccc(F)cc2)nn1-c1cc(NCCC(=O)NCC(F)(F)F)ncn1 [Compound 35] | ≤ 1
4 | CNC(=O)c1cc(-c2nccc(N[C@@H](C(=O)NCC(F)(F)F)C(C)C)n2)c[nH]1 [Compound 109] | 1 to 10
5 | CC(C)(Nc1ccnc(-c2ccc3c(c2)OCO3)n1)C(=O)NCC(F)(F)F [Compound 74] | ≤ 1
6 | CC(C)[C@@H](Nc1nc(-c2c[nH]c(C(=O)NC3CC3)c2)ncc1F)C(=O)NCC(F)(F)F [Compound 126] | 10 to 50
7 | O=C(CNc1nc(-c2cccnc2F)ncc1F)NCC(F)(F)F [Compound 8] | 10 to 50
8 | C[C@H](Nc1nc(-c2ccnc(Cl)c2)ncc1F)C(=O)NCC(F)(F)F [Compound 2] | 10 to 50
9 | CC(C)[C@@H](Nc1nc(-c2c[nH]c(=O)c(N)c2)ncc1F)C(=O)NCC(F)(F)F [Compound 137] | 10 to 50
10 | CC(C)[C@@H](Nc1ccnc(-c2ccc(=O)[nH]c2)n1)C(=O)NCC(F)(F)F [Compound 85] | 10 to 50
11 | COc1ccc(-c2nccc(NC(C)(C)C(=O)NCC(F)(F)F)n2)cn1 [Compound 80] | 10 to 50
12 | CC(C)(Nc1nc(-c2ccc3nccnc3c2)ncc1F)C(=O)NCC(F)(F)F [Compound 162] | ≤ 1
13 | COc1ccc(Nc2nc(N)n(-c3ncc(F)c(NCCC(=O)NCC(F)(F)F)n3)n2)cc1 [Compound 50] | 1 to 10

Next, values leading:

Row | Ki [µM] | Structure (SMILES)
14 | 1 to 10 | O=C(NCC(F)(F)F)[C@H]1CCCN1c1nc(-c2ccc3ncsc3c2)ncc1F [Compound 141]
15 | 10 to 50 | CC(=O)Nc1nc2ccc(-c3nccc(N4CCC[C@@H]4C(=O)NCC(F)(F)F)n3)cc2s1 [Compound 63]
16 | ≤ 1 | CC(C)(Nc1ccnc(-c2ccc3ncsc3c2)n1)C(=O)NCC(F)(F)F [Compound 154]
17 | 10 to 50 | O=C(NCc1ccccc1)c1cc(-c2ncc(F)c(N3CCC[C@@H]3C(=O)NCC(F)(F)F)n2)c[nH]1 [Compound 116]
18 | 1 to 10 | CC(C)[C@@H](Nc1ccnc(-c2ccc3ncccc3c2)n1)C(=O)NCC(F)(F)F [Compound 72]
19 | 1 to 10 | O=C(NCC(F)(F)F)[C@H]1CCCN1c1ccnc(-c2ccc3c(c2)OCO3)n1 [Compound 59]
20 | 10 to 50 | O=C(NCC1CC1)c1cc(-c2ncc(F)c(N3CCC[C@@H]3C(=O)NCC(F)(F)F)n2)c[nH]1 [Compound 118]

same assay, conditions: at concentrations of 5.0 μM

Row | Structure (SMILES) | inhibition of JAK3 at concentrations of 5.0 μM
21 | Nc1nc(NC2CCCCC2)nn1-c1ncc(F)c(N2CCC[C@@H]2C(=O)NCC(F)(F)F)n1 [Compound 47] | did not inhibit

same assay, conditions: at concentrations of 50 μM

Row | Structure (SMILES) | inhibition of JAK3 at concentrations of 50 μM
22 | COc1ccc(-c2nccc(N[C@@H](C(=O)NCC(F)(F)F)C(C)C)n2)cc1 [Compound 143] | did not inhibit
23 | COc1ccc(-c2ncc(F)c(NC(C)(C)C(=O)NCC(F)(F)F)n2)cc1 [Compound 124] | did not inhibit
24 | CC(C)[C@@H](Nc1nc(-c2c[nH]c3ccc(Cl)cc23)ncc1F)C(=O)NCC(F)(F)F [Compound 160] | did not inhibit
25 | COc1ccc(-c2nccc(N[C@@H](C(=O)NCC(F)(F)F)C(C)C)n2)cn1 [Compound 70] | did not inhibit
26 | CC(C)[C@@H](Nc1nc(-c2ccc3c(c2)OCCO3)ncc1F)C(=O)NCC(F)(F)F [Compound 166] | did not inhibit

The remaining lines, values ahead:

Row | inhibition of JAK3 at concentrations of 50 μM | Structure (SMILES)
27 | did not inhibit | O=C(NCC(F)(F)F)[C@H]1CCCN1c1nc(-c2cccnc2F)ncc1F [Compound 21]
28 | did not inhibit | O=C(NCC(F)(F)F)[C@@H]1CCCN1c1nc(-c2cccnc2F)ncc1F [Compound 24]
29 | did not inhibit | COc1ccc(-c2ncc(F)c(N3CCC[C@@H]3C(=O)NCC(F)(F)F)n2)cn1 [Compound 91]
